Experimental data published in patent publication US4661297A, “Basic ethers of 7-oxo-7H-benzo(c) fluorene and a process for their production” (SPOFA, spojene podniky pro zdravotnickou vyrobu, priority 1980, dated 1987).
Where “and” joins values, the source holds several entries; their conditions need not be identical. Identical values can stand only once. Entries after “also recorded” stand apart in the source; their conditions may differ. Like-named read-outs stand apart in the source and are kept apart here.

Assays:
[1] = system: Ehrlich's ascitic carcinoma; test: Incorporation of 14C-adenine and 14C-valine into cellular fraction of Ehrlich's ascitic carcinoma in vitro; type: cell-based, mouse; settings: for Radioactivity incorporation, adenine: control 1060 cpm; for Radioactivity incorporation, valine: control 2455 cpm; for IC50 / activity at 75 µM / activity at 150 µM / activity at 18.75 µM / activity at 37.5 µM: Mus musculus, Ehrlich
Source text: In Table 4, the effect of Tiloron (NSC 143969; 2,7-bis-[2-(diethylamino)ethoxy]fluorene-9-one) and 5-(2-dimethylaminoethoxy)-7-oxo-7H-benzo(c) fluorene hydrochloride are compared on incorporation of ^14 C-adenine and ^14 C-valine with the cellular fraction of Ehrlich's ascitic carcinoma (insoluble in trichloacetic acid). The tests in vitro reveal that the composition of the invention was more than 10 times as effective as Tiloron. The inhibition of incorporation of adenine and valine into the used system of tumor cells is considered as an indication of an anti-tumorous, cytostatic action. This biological activity of the described compound is considerably greater than that of its congener Tiloron. (See also Table 4.)
Effects of Tiloron and substance 13468 on incorporation of ^14
C-adenine and ^14 C-valine
into cellular fraction of Ehrlichs ascitic carcinoma, insoluble in
in vitro. Radioactivity incorporation expressed in cpm.
IC50 = concentration inhibiting incorporation by 50 percent.

[2] = system: haemagglutinins (antibody formation); test: Haemagglutinin titre in mouse serum after ram erythrocyte immunization; type: in vivo; settings: for Haemagglutinins % of control titre / Haemagglutinins titre: day 9; for Haemagglutinins titre: control 343
Source text: (§1) Haemagglutanin and haemolysin titres in mouse serum on day 9 after ram
(§2) immunization under effect of substance 13468. Substance injected
(§3) either for 5 days (2 days before, on day of, 2 days after immunization)
(§4) (2 days before, on day of, 8 days after immunization). Groups of 12
(§5) expressed by mean value of highest attenuation of serum eliciting

[3] = system: haemolysins (antibody formation); test: Haemolysin titre in mouse serum after ram erythrocyte immunization; type: in vivo; settings: day 9; for Haemolysins titre: control 37
Source text: as §1, §2, §3, §4, §5

Yoshida's Tumor = test: Inhibition of incorporation of labelled substrates in Yoshida's tumor; type: cell-based; settings: Rattus norvegicus, read-out: IC50
Source text: Tumor growth may be observed clinically or in experiments in vivo, that is, with experimental animals, or in vitro, for example, in tissue cultures prepared from tumors. Assessment of tumor growth may be effected by measuring the weight of the tumor mass or, more effectively, by measuring the radioactivity after incorporation therein of certain substances of natural origin such as amino acids, adenine, thymidine and the like labelled with radioactive atoms such as ^14 C, ^3 H, etc.
Thus, by way of exemplification, the IC^50 values (inhibitory concentration which lowered the initial rate of ^14 C incorporation to 50% of control) are shown in Table VI, below (Yoshida's Tumor, (U-^14 C) amino acid mixture)
The ^IC 50 values of compound 13468 are also shown in Table VII with varying substrates.

Ehrlich tumor = test: Inhibition of incorporation of labelled substrate in Ehrlich tumor; type: cell-based; settings: Mus musculus, substrate L-(U-14C) amino acid mixture
Acute toxicity in mice = settings: mouse, in vivo, mice S, males 22-24 gram
Source text: The anti-tumor compounds described herein have also been studied from the standpoint of toxicity and the conclusion drawn that they are not toxic to mammalian hosts. The toxicological data set forth in Table IX, below, supports this conclusion.

[4] = system: human myelogenous leukemia cells; test: DNA biosynthesis inhibition in human myelogenous leukemia cells; type: cell-based

For `CN(C)CCOc1cc2c(c3ccccc13)-c1ccccc1C2=O.Cl` [compound 13468, 5-(2-Dimethylaminoethoxy)-7-oxo-7H-benzo(c) fluorene hydrochloride], which “Radioactivity incorporation, adenine” value ([1]; 75 μM) is on record?
The value was 266 cpm.

What about the “Radioactivity incorporation, valine” value ([1]; 75 μM) of the same compound?
The value was 887 cpm.

What about the “Radioactivity incorporation, adenine” value ([1]; 150 μM) of the same compound?
The value was 59 cpm.

What about the “Radioactivity incorporation, valine” value ([1]; 150 μM) of the same compound?
Its value is 349 cpm.

And the “Radioactivity incorporation, adenine” value ([1]; 18,75 μM)?
The value was 757 cpm.

And the “Radioactivity incorporation, valine” value ([1]; 18,75 μM)?
Its value is 2394 cpm.

What about the “Radioactivity incorporation, adenine” value ([1]; 37,5 μM) of the same compound?
Its value is 714 cpm.

And the “Radioactivity incorporation, valine” value ([1]; 37,5 μM)?
Its value is 2253 cpm.

What about the IC50 ([1]; read-out: IC50 (concentration inhibiting incorporation by 50 percent), adenine) of the same compound?
The IC50 was 53 µM.

What about the IC50 ([1]; read-out: IC50 (concentration inhibiting incorporation by 50 percent), valine) of the same compound?
The IC50 was 65 µM.

What about the activity at 75 µM ([1]; 75 μM, read-out: Incorporation of adenine relative to control (0 μM = 100%)) of the same compound?
Its activity at 75 µM is 25%.

What about the activity at 75 µM ([1]; 75 μM, read-out: Incorporation of valine relative to control (0 μM = 100%)) of the same compound?
The activity at 75 µM was 36%.

And the activity at 150 µM ([1]; 150 μM, read-out: Incorporation of adenine relative to control (0 μM = 100%))?
The activity at 150 µM was 6%.

And the activity at 150 µM ([1]; 150 μM, read-out: Incorporation of valine relative to control (0 μM = 100%))?
Its activity at 150 µM is 14%.

And the activity at 18.75 µM ([1]; 18,75 μM, read-out: Incorporation of adenine relative to control (0 μM = 100%))?
The activity at 18.75 µM was 71%.

What about the activity at 18.75 µM ([1]; 18,75 μM, read-out: Incorporation of valine relative to control (0 μM = 100%)) of the same compound?
Its activity at 18.75 µM is 98%.

And the activity at 37.5 µM ([1]; 37,5 μM, read-out: Incorporation of adenine relative to control (0 μM = 100%))?
The activity at 37.5 µM was 87%.

What about the activity at 37.5 µM ([1]; 37,5 μM, read-out: Incorporation of valine relative to control (0 μM = 100%)) of the same compound?
Its activity at 37.5 µM is 92%.

And the “times as effective as Tiloron” value ([1]; adenine and valine incorporation, in vitro)?
The value was “more than 10 times”.

What about the “Immunosuppressive effect on antibody formation” value ([2]; mice, in words, hydrochloride) of the same compound?
Its value is “immunosuppressive effects on antibody formation in mice; also recorded: inhibition of the formation of immunological serum anti-bodies”.

And the “Haemagglutinins % of control titre” value ([2]; s.c. 5×8 mg/kg)?
Its value is 71%.

And the Haemagglutinins titre ([2]; s.c. 5×8 mg/kg)?
Its Haemagglutinins titre is 243.

What about the “Haemagglutinins % of control titre” value ([2]; s.c. 5×40 mg/kg) of the same compound?
The value was 3.5%.

And the Haemagglutinins titre ([2]; s.c. 5×40 mg/kg)?
The Haemagglutinins titre was 12.

What about the “Haemagglutinins % of control titre” value ([2]; s.c. 11×8 mg/kg) of the same compound?
The value was 71%.

And the Haemagglutinins titre ([2]; s.c. 11×8 mg/kg)?
The Haemagglutinins titre was 243.

What about the “Haemagglutinins % of control titre” value ([2]; s.c. 11×40 mg/kg, Suppressed) of the same compound?
Its value is “under 2.9%”.

What about the Haemagglutinins titre ([2]; s.c. 11×40 mg/kg, Suppressed) of the same compound?
The Haemagglutinins titre was “under 10”.

And the “Haemolysins % of control titre” value ([3]; s.c. 5×8 mg/kg)?
Its value is 132%.

What about the Haemolysins titre ([3]; s.c. 5×8 mg/kg) of the same compound?
Its Haemolysins titre is 49.

And the “Haemolysins % of control titre” value ([3]; s.c. 5×40 mg/kg)?
Its value is “under 27%”.

What about the Haemolysins titre ([3]; s.c. 5×40 mg/kg, Suppressed) of the same compound?
Its Haemolysins titre is “under 10”.

And the “Haemolysins % of control titre” value ([3]; s.c. 11×8 mg/kg)?
The value was “under 27%”.

What about the Haemolysins titre ([3]; s.c. 11×8 mg/kg, Suppressed) of the same compound?
Its Haemolysins titre is “under 10”.

What about the “Haemolysins % of control titre” value ([3]; s.c. 11×40 mg/kg) of the same compound?
The value was “under 27%”.

What about the Haemolysins titre ([3]; s.c. 11×40 mg/kg, Suppressed) of the same compound?
The Haemolysins titre was “under 10”.

What about the IC50 (Yoshida's Tumor; substrate 5-iodo-2-deoxy(6-3H) uridine) of the same compound?
Its IC50 is 12 µM.

What about the IC50 (Yoshida's Tumor; substrate (6-3H) uridine) of the same compound?
Its IC50 is 36 µM and 12.6 µg/mL.

And the IC50 (Yoshida's Tumor; substrate (thymine U-14C) thymidine)?
Its IC50 is 4 µM.

What about the IC50 (Yoshida's Tumor; substrate L-(U-14)leucine) of the same compound?
Its IC50 is 29 µM.

What about the IC50 (Yoshida's Tumor; substrate L-(U-14C) amino acid mixture, Table VII) of the same compound?
Its IC50 is 32 µM.

What about the IC50 (Ehrlich tumor) of the same compound?
The IC50 was 31 µM.

What about the LD50 (Acute toxicity in mice; iv, intravenously) of the same compound?
Its LD50 is 90 mg/kg.

What about the LD50 (Acute toxicity in mice; po, orally) of the same compound?
The LD50 was 600 mg/kg.

And the LD50 (Acute toxicity in mice; sc, subcutaneously)?
The LD50 was 490 mg/kg.

And the IC50 [4]?
Its IC50 is 5 µM.
